The values that follow come from ChEMBL document CHEMBL5727610, “Cardiac glycoside analogs and their use in methods for inhibition of viral infection” (2020).

SMILES strings stand for the structures.

A short description of this test: The inhibition of HCMV replication by digitoxin: The effect of digitoxin analogs on HCMV replication was tested. HFFs were infected with pp28-luciferase HCMV and treated with the compounds (Table 2, FIG. 2A). EC50, CC50 and selectivity index (SI) calculated as CC50/EC50 were determined for each compound. […] The compounds with the best SI were α-L rhamnose, α-L amicetose and mannose. Virus yield was determined for selected compounds (FIG. 2B), and a dose dependent effect on virus DNA yield was observed.
As usually defined, the EC50 is the concentration needed to bring the measured effect to its halfway point. For the compound `CC1OC(OC2C(C)OC(OC3C(O)CC(O[C@H]4CC[C@@]5(C)[C@H](CC[C@@H]6[C@@H]5CC[C@]5(C)[C@@H](C7=CC(=O)OC7)CC[C@]65O)C4)OC3C)C(C)C2O)CC(OC2OC(C)[C@H](OC3OC(C)[C@@H](OC4OC(C)[C@@H](O)C(O)[C@@H]4O)C(O)[C@@H]3O)C(O)[C@@H]2O)C1C` (some centres not stated), the EC50 is 233 nM. Regarding `CC1OC(OC2C(O)CC(OC3C(O)CC(O[C@H]4CC[C@@]5(C)[C@H](CC[C@@H]6[C@@H]5CC[C@]5(C)[C@@H](C7=CC(=O)OC7)CC[C@]65O)C4)OC3C)OC2C)CC(OC2OC(CO)[C@H](O)C(O)[C@@H]2O)C1C` (some centres not stated), the EC50 is 7.31 nM. `CC1OC(OC2C(C)OC(OC3C(O)CC(O[C@H]4CC[C@@]5(C)[C@H](CC[C@@H]6[C@@H]5CC[C@]5(C)[C@@H](C7=CC(=O)OC7)CC[C@]65O)C4)OC3C)C(C)C2O)CC(OC2OC(C)[C@@H](OC3OC(C)[C@H](OC4OC(C)[C@H](O)C(O)[C@H]4O)C(O)[C@H]3O)C(O)[C@H]2O)C1C` (some centres not stated): the EC50 was 322 nM. As to `CC1OC(OC2C(C)OC(OC3C(O)CC(O[C@H]4CC[C@@]5(C)[C@H](CC[C@@H]6[C@@H]5CC[C@]5(C)[C@@H](C7=CC(=O)OC7)CC[C@]65O)C4)OC3C)C(C)C2O)CC(OC2OC(C)[C@H](OC3OC(C)[C@@H](OC4OC(C)[C@@H](O)C[C@@H]4O)C[C@@H]3O)C[C@@H]2O)C1C` (some centres not stated), the EC50 is 113 nM.

For `CC1OC(OC2C(O)CC(OC3C(O)CC(O[C@H]4CC[C@@]5(C)[C@H](CC[C@@H]6[C@@H]5CC[C@]5(C)[C@@H](C7=CC(=O)OC7)CC[C@]65O)C4)OC3C)OC2C)CC(OC2OC(C)[C@H](OC3OC(C)[C@@H](O)C[C@@H]3O)C[C@@H]2O)C1C` (some centres not stated), the EC50 was 14.8 nM.

With `CC1OC(OC2C(C)OC(OC3C(O)CC(O[C@H]4CC[C@@]5(C)[C@H](CC[C@@H]6[C@@H]5CC[C@]5(C)[C@@H](C7=CC(=O)OC7)CC[C@]65O)C4)OC3C)C(C)C2O)CC(OC2OC(C)[C@@H](OC3OC(C)[C@H](OC4OC(C)[C@H](O)C[C@H]4O)C[C@H]3O)C[C@H]2O)C1C` (some centres not stated), the EC50 is 2080 nM. Take `CC1OC(OC2C(O)CC(OC3C(O)CC(O[C@H]4CC[C@@]5(C)[C@H](CC[C@@H]6[C@@H]5CC[C@]5(C)[C@@H](C7=CC(=O)OC7)CC[C@]65O)C4)OC3C)OC2C)CC(OC2OC(C)[C@@H](O)C(O)[C@H]2O)C1C` (some centres not stated): the EC50 is 26.6 nM.

In the case of `CC1OC(OC2C(O)CC(OC3C(O)CC(O[C@H]4CC[C@@]5(C)[C@H](CC[C@@H]6[C@@H]5CC[C@]5(C)[C@@H](C7=CC(=O)OC7)CC[C@]65O)C4)OC3C)OC2C)CC(OC2OC(C)[C@H](O)C(O)[C@@H]2O)C1C` (some centres not stated), the EC50 was 4.77 nM. Take `CC1OC(OC2C(O)CC(OC3C(O)CC(O[C@H]4CC[C@@]5(C)[C@H](CC[C@@H]6[C@@H]5CC[C@]5(C)[C@@H](C7=CC(=O)OC7)CC[C@]65O)C4)OC3C)OC2C)CC(OC2OC(C)[C@@H](OC3OC(C)[C@H](O)C[C@H]3O)C[C@H]2O)C1C` (some centres not stated): the EC50 was 786 nM. The figure for `CC1OC(OC2C(O)CC(OC3C(O)CC(O[C@H]4CC[C@@]5(C)[C@H](CC[C@@H]6[C@@H]5CC[C@]5(C)[C@@H](C7=CC(=O)OC7)CC[C@]65O)C4)OC3C)OC2C)CC(OC2OC(C)[C@@H](O)C[C@H]2O)C1C` (some centres not stated) is 37.5 nM; for `CC1OC(OC2C(O)CC(OC3C(O)CC(O[C@H]4CC[C@@]5(C)[C@H](CC[C@@H]6[C@@H]5CC[C@]5(C)[C@@H](C7=CC(=O)OC7)CC[C@]65O)C4)OC3C)OC2C)CC(OC2OC(C)[C@@H](OC3OC(C)[C@H](O)C(O)[C@H]3O)C(O)[C@H]2O)C1C` (some centres not stated) it is 210 nM; for `CC1OC(OC2C(O)CC(OC3C(O)CC(O[C@H]4CC[C@@]5(C)[C@H](CC[C@@H]6[C@@H]5CC[C@]5(C)[C@@H](C7=CC(=O)OC7)CC[C@]65O)C4)OC3C)OC2C)CC(OC2OC(C)[C@H](OC3OC(C)[C@@H](O)C(O)[C@@H]3O)C(O)[C@@H]2O)C1C` (some centres not stated) it is 36.7 nM.
